Measurements as given in ChEMBL document CHEMBL1137790, “Octahydropyrrolo[3,4-c]pyrrole: a diamine scaffold for construction of either alpha4beta2 or alpha7-selective nicotinic acetylcholine receptor (nAChR) ligands. Substitutions that switch subtype selectivity” (J Med Chem, 2009).

Columns and labels:
Rattus norvegicus = organism: Rattus norvegicus; test: Selectivity ratio of Ki for alpha7 nicotinic acetylcholine receptor to Ki for alpha4beta2 nicotinic acetylcholine receptor in rat brain minus cerebellum membrane; format: tissue-based
[1] = target: Neuronal acetylcholine receptor subunit alpha-7 (Rattus norvegicus, UniProt Q05941); test: Displacement of [3H]A585539 from alpha7 nicotinic acetylcholine receptor in rat brain minus cerebellum membrane; format: tissue-based
[2] = target: Neuronal acetylcholine receptor; alpha4/beta2 (Rattus norvegicus, UniProt P09483+P12390); test: Displacement of [3H]cytisine from alpha4beta2 nicotinic acetylcholine receptor in rat brain minus cerebellum membrane; format: tissue-based
[3] = target: T1, Neuronal acetylcholine receptor; alpha4/beta2 (Homo sapiens, UniProt P17787+P43681); test: Agonist activity at human recombinant alpha4beta2 nicotinic acetylcholine receptor expressed in HEK293 cells assessed as changes in intracellular calcium level at 100 uM by FLIPR relative to nicotine; format: functional, cell-based
[4] = target: T2, Neuronal acetylcholine receptor subunit alpha-7 (Homo sapiens, UniProt P36544); test: Agonist activity at human recombinant alpha7 nicotinic acetylcholine receptor expressed in xenopus laevis oocytes at 100 uM by parallel oocyte electrophysiological assay relative to acetylcholine; format: functional, cell-based
[5] = target: T2, Neuronal acetylcholine receptor subunit alpha-7; test: Agonist activity at human recombinant alpha7 nicotinic acetylcholine receptor expressed in xenopus laevis oocytes by parallel oocyte electrophysiological assay; format: functional, cell-based
[6] = target: T1, Neuronal acetylcholine receptor; alpha4/beta2; test: Agonist activity at human recombinant alpha4beta2 nicotinic acetylcholine receptor expressed in HEK293 cells assessed as changes in intracellular calcium level by FLIPR; format: functional, cell-based

Chain of Neuronal acetylcholine receptor subunit alpha-7 (Rattus norvegicus, UniProt Q05941) (Q05941 whole entry): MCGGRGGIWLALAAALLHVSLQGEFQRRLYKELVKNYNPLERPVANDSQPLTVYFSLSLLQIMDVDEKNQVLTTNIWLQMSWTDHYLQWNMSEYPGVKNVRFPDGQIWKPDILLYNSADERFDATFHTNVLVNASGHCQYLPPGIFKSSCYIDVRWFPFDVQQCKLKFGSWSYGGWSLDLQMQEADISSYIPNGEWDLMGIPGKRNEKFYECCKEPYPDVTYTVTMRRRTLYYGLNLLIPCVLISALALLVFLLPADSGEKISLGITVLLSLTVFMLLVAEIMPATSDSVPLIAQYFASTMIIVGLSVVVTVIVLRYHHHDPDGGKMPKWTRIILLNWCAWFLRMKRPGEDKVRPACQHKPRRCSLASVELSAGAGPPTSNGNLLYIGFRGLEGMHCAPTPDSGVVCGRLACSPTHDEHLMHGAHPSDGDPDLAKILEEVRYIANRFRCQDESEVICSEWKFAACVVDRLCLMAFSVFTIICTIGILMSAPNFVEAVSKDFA
Chain of Neuronal acetylcholine receptor; alpha4/beta2 (Rattus norvegicus, UniProt P09483+P12390) (P09483 whole entry): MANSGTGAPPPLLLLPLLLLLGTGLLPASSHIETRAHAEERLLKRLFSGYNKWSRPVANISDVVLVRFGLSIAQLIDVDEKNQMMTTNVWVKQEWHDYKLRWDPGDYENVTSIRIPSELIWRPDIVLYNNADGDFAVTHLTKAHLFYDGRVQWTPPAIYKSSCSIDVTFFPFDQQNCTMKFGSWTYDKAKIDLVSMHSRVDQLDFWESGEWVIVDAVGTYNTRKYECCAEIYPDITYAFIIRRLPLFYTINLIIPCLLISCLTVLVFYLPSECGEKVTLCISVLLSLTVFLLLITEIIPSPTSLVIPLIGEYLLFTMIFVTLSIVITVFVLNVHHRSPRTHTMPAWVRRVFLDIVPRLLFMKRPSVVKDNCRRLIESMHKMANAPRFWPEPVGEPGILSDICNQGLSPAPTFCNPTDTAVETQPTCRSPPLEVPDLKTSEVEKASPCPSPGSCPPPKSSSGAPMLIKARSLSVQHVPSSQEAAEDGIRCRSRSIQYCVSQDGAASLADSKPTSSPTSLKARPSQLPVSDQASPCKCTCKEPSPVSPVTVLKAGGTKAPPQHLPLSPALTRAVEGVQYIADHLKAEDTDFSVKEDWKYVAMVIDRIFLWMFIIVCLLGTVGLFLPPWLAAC
Chain of Neuronal acetylcholine receptor; alpha4/beta2 (Rattus norvegicus, UniProt P09483+P12390) (P12390 whole entry): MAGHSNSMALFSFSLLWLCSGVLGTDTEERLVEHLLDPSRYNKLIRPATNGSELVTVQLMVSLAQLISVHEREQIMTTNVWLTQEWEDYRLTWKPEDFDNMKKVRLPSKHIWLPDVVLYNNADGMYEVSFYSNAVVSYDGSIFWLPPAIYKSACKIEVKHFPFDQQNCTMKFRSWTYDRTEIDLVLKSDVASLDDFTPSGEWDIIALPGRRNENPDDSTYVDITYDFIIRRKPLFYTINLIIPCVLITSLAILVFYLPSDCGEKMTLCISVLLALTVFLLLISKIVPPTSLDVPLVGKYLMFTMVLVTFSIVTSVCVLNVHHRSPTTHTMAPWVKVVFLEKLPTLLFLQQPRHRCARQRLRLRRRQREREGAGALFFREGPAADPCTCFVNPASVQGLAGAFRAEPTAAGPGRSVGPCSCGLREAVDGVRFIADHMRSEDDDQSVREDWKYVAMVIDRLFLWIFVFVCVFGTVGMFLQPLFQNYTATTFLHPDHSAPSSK
T2 sequence (P36544 whole entry): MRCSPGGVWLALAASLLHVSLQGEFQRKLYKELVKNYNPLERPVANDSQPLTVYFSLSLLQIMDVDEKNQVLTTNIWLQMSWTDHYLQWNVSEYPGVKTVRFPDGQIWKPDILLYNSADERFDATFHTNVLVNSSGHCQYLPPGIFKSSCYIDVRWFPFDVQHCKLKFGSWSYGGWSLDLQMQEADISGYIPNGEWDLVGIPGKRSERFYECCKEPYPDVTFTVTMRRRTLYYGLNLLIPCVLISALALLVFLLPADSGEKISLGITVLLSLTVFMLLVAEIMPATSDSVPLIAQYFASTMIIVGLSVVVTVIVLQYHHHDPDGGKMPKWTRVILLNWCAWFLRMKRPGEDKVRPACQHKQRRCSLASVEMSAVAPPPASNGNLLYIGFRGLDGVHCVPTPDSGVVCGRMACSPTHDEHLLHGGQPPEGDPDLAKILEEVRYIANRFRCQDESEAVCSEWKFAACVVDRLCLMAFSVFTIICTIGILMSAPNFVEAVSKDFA
T1 sequence (P17787 whole entry): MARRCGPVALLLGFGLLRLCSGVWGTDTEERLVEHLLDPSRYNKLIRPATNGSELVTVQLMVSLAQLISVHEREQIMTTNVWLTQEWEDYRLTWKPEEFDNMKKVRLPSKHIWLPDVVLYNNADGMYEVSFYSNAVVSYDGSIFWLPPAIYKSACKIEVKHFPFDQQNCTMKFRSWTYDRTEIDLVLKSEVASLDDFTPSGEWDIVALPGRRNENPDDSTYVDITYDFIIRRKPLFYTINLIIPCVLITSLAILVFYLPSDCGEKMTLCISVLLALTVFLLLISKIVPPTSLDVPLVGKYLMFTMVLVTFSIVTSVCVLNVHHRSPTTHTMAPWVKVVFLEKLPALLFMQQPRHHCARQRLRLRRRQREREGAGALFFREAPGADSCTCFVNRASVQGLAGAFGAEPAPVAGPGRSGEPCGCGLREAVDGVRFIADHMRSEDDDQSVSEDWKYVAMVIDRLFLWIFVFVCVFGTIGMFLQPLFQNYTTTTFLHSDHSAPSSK
T1 sequence (P43681 whole entry): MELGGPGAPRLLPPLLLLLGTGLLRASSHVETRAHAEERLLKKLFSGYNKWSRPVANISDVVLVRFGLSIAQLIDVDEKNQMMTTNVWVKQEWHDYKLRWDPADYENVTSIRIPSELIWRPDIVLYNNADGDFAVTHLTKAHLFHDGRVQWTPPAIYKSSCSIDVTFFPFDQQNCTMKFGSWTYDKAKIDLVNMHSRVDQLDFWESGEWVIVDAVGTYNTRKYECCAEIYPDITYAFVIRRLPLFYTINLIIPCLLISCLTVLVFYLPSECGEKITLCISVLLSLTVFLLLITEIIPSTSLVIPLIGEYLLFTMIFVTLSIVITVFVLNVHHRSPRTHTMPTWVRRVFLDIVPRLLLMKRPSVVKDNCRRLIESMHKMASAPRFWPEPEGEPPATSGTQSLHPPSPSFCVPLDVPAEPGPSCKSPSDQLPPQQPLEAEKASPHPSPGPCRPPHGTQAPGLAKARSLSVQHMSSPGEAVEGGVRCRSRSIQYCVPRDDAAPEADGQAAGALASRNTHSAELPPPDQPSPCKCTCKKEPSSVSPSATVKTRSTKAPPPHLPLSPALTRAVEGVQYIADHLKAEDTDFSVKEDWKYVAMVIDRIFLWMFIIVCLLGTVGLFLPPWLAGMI

| SMILES | Ratio Ki (Rattus norvegicus) | Ki [1] [nM] | Ki [2] [nM] | Activity [3] [%] | Activity [4] [%] | EC50 [5] [µM] | EC50 [6] [µM] |
| --- | --- | --- | --- | --- | --- | --- | --- |
| Cc1ccc(-c2ccc(N3C[C@H]4CN(C)C[C@H]4C3)nn2)cc1 | > 8600 | 11.6 | > 100000 |  |  |  |  |
| COc1ccc(-c2ccc(N3C[C@H]4CN(C)C[C@H]4C3)nn2)cc1 | > 4500 | 22 | > 100000 |  |  |  |  |
| CCN1C[C@@H]2CN(c3ccc(-c4ccccc4)nn3)C[C@@H]2C1 | > 300 | 330 | > 100000 |  |  |  |  |
| CN1C[C@@H]2CN(c3ccc(-c4ccccc4)nc3)C[C@@H]2C1 | 0.0003 | 9.6 | 28000 |  |  |  |  |
| c1cc(N2C[C@H]3CNC[C@H]3C2)ccn1 |  | > 10000 | > 10000 |  |  |  |  |
| CN1C[C@@H]2CN(c3ccc(-c4cccc([N+](=O)[O-])c4)nc3)C[C@@H]2C1 | 87 | 30 | 2600 |  |  |  |  |
| CN1C[C@@H]2CN(c3cccnc3)C[C@@H]2C1 | 61 | 1590 | 26 |  |  |  |  |
| Cc1cccc(-c2ccc(N3C[C@H]4CN(C)C[C@H]4C3)nn2)c1 | > 22000 | 4.42 | > 100000 |  |  |  |  |
| CN1C[C@@H]2CN(c3ccc(-c4cccc(O)c4)nn3)C[C@@H]2C1 | 2660 | 7.9 | 21000 |  |  |  |  |
| COc1cncc(N2C[C@H]3CNC[C@H]3C2)c1 | 2900 | 240 | 0.081 |  |  |  |  |
| Oc1cncc(N2C[C@H]3CNC[C@H]3C2)c1 | > 13000 | > 10000 | 0.75 |  |  |  |  |
| Brc1ccc(N2C[C@H]3CNC[C@H]3C2)cn1 | 1000 | 290 | 0.28 |  |  |  |  |
| c1ccc(-c2ccc(N3C[C@H]4CNC[C@H]4C3)nc2)cc1 | > 3300 | 30 | > 100000 |  |  |  |  |
| CCOc1cncc(N2C[C@H]3CNC[C@H]3C2)c1 | 41000 | 1440 | 0.035 | 118 | 37 | > 100 | 0.37 |
| c1ccc(-c2ccc(N3C[C@H]4CNC[C@H]4C3)cn2)cc1 | 0.09 | 8.4 | 96 |  |  |  |  |
| c1ncc(N2C[C@H]3CNC[C@H]3C2)cc1N1CCOCC1 | > 210 | > 10000 | 47 |  |  |  |  |
| Cc1ccccc1-c1ccc(N2C[C@H]3CN(C)C[C@H]3C2)nn1 | > 14 | 690 | > 10000 |  |  |  |  |
| c1ccc(-c2ccc(N3C[C@H]4CNC[C@H]4C3)cc2)cc1 | > 350 | 28 | > 10000 |  |  |  |  |
| Clc1ccc(N2C[C@H]3CNC[C@H]3C2)cn1 | 900 | 180 | 0.2 |  |  |  |  |
| C[N+]1(C)C[C@H]2CN(c3ccc(-c4ccccc4)nn3)C[C@H]2C1 | > 1600 | 5.98 | > 10000 |  |  |  |  |

| SMILES | Ratio Ki (Rattus norvegicus) | Ki [1] [nM] | Ki [2] [nM] | Activity [3] [%] | Activity [4] [%] | EC50 [5] [µM] | EC50 [6] [µM] |
| --- | --- | --- | --- | --- | --- | --- | --- |
| CN1C[C@@H]2CN(c3cncc(-c4ccccc4)c3)C[C@@H]2C1 | > 190 | > 10000 | 51 |  |  |  |  |
| Cc1cc(C)cc(-c2ccc(N3C[C@H]4CN(C)C[C@H]4C3)nn2)c1 |  | > 10000 | > 100000 |  |  |  |  |
| Cc1cccc(-c2ccc(N3C[C@H]4CN(C)C[C@H]4C3)cn2)c1 | 112 | 6.7 | 750 |  |  |  |  |
| CN1C[C@@H]2CN(c3ccc(-c4ccccc4)cc3)C[C@@H]2C1 | > 8300 | 12 | > 100000 |  |  |  |  |
| Brc1cncc(N2C[C@H]3CNC[C@H]3C2)c1 | 1100 | 66 | 0.06 |  |  |  |  |
| CN1C[C@@H]2CN(c3ccc(-c4ccccc4)cn3)C[C@@H]2C1 | > 6000 | 17 | > 100000 |  |  |  |  |
| CN1C[C@@H]2CN(c3ccc(Cl)nc3)C[C@@H]2C1 | > 260 | > 10000 | 38 |  |  |  |  |
| CN1C[C@@H]2CN(c3ccc(-c4ccc5[nH]ccc5c4)nn3)C[C@@H]2C1 | > 400000 | 0.24 | > 100000 | < 10 | 87 | 0.32 | > 100 |
| CN1C[C@@H]2CN(c3ccc(-c4ccc(O)cc4)nn3)C[C@@H]2C1 | > 1800 | 5.3 | > 10000 |  |  |  |  |
| COc1cccc(-c2ccc(N3C[C@H]4CN(C)C[C@H]4C3)cn2)c1 | > 2000 | 5 | > 100000 |  |  |  |  |
| CC(C)Oc1cncc(N2C[C@H]3CNC[C@H]3C2)c1 | > 200000 | > 10000 | 0.051 |  |  |  |  |
| CN1C[C@@H]2CN(c3ccc(-c4cccc(-c5ccccc5)c4)nc3)C[C@@H]2C1 | 220 | 44 | 9800 |  |  |  |  |
| c1ccc(-c2cncc(N3C[C@H]4CNC[C@H]4C3)c2)cc1 | 28000 | 4560 | 0.16 | < 10 | < 10 | > 100 | > 100 |
| c1cncc(N2C[C@H]3CNC[C@H]3C2)c1 | 420 | 51 | 0.12 | 146 | 129 | 4.47 | 0.04 |
| CN1C[C@@H]2CN(c3ccc(-c4ccccc4)nn3)C[C@@H]2C1 | > 9200 | 10.8 | > 100000 | < 10 | 52 | 4.26 | > 100 |
| c1ccc(N2C[C@H]3CNC[C@H]3C2)nc1 | > 38 | > 10000 | 260 |  |  |  |  |
| CCCOc1cncc(N2C[C@H]3CNC[C@H]3C2)c1 | > 240000 | > 10000 | 0.041 |  |  |  |  |
| c1ccc(-c2ccc(N3C[C@H]4CNC[C@H]4C3)nn2)cc1 | 300 | 17.5 | 5320 | < 10 | 29 | 1.15 | > 100 |
| c1ccc(COc2cncc(N3C[C@H]4CNC[C@H]4C3)c2)cc1 | > 170000 | > 10000 | 0.058 |  |  |  |  |
| C[N+]1(C)C[C@H]2CN(c3ccc(Cl)nc3)C[C@H]2C1 | 1.6 | 340 | 210 |  |  |  |  |
